Measured values as given in PubChem BioAssay (NCI).
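The compound was tested at five concentrations on cells cultured in 96-well plates, with a 48-hour exposure period. The concentration for 50% growth inhibition is given as GI50. TGI denotes the concentration required for complete inhibition of growth.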

What was measured:
Test in all cases: NCI anticancer screen, dose series, 48 h
SK-MEL-2 melanoma = system: SK-MEL-2 melanoma
HOP-62 NSCLC = system: HOP-62 NSCLC
SF-295 CNS = system: SF-295 CNS
KM12 colon = system: KM12 colon
SK-MEL-28 melanoma = system: SK-MEL-28 melanoma
HCC-2998 colon = system: HCC-2998 colon
HCT-15 colon = system: HCT-15 colon
DU-145 prostate = system: DU-145 prostate
MCF7 breast = system: MCF7 breast

| SMILES | TGI (SK-MEL-2 melanoma) | TGI (HOP-62 NSCLC) | TGI (SF-295 CNS) | TGI (KM12 colon) | TGI (SK-MEL-28 melanoma) | TGI (HCC-2998 colon) | TGI (HCT-15 colon) | GI50 (SK-MEL-2 melanoma) | GI50 (HOP-62 NSCLC) | GI50 (SF-295 CNS) | GI50 (HCT-15 colon) | GI50 (DU-145 prostate) | TGI (DU-145 prostate) | GI50 (MCF7 breast) | TGI (MCF7 breast) | GI50 (KM12 colon) | GI50 (SK-MEL-28 melanoma) | GI50 (HCC-2998 colon) |
| --- | --- | --- | --- | --- | --- | --- | --- | --- | --- | --- | --- | --- | --- | --- | --- | --- | --- | --- |
| CCOC(=N)CC(=O)Nc1cccc(C)c1C | > 100 µM | > 100 µM | > 100 µM | > 100 µM | > 100 µM | > 100 µM | – | – | – | – | – | – | – | – | – | – | – | – |
| CCCCOC(=O)NC(=O)c1cn(CCCOC(=O)NCCCCCCNC(=O)OCCCn2cc(C(=O)NC(=O)OCCCC)c(=O)[nH]c2=O)c(=O)[nH]c1=O | > 100 µM | > 100 µM | > 100 µM | > 100 µM | > 100 µM | > 100 µM | > 100 µM | – | – | – | – | – | – | – | – | – | – | – |
| CC(C)CCCC(C)[C@H]1CCC2[C@H]3C(CC[C@@]21C)[C@@]1(C)CCC=C[C@]12C[C@@H]2[C@@H]3O (stereo partly specified) | – | > 100 µM | > 100 µM | > 100 µM | > 100 µM | > 100 µM | > 100 µM | – | – | – | – | – | – | – | – | – | – | – |
| Nc1ccn(C2(CO)C=C(CO)C(O)C2O)c(=O)n1 (stereo unspecified) | > 25.8 µM | > 25.8 µM | – | > 25.8 µM | > 25.8 µM | > 25.8 µM | > 25.8 µM | – | – | – | – | – | – | – | – | – | – | – |
| COC(=O)/C(C=O)=C/Sc1ccccc1 | 91.8 µM | > 100 µM | > 100 µM | > 100 µM | 59.2 µM | > 100 µM | > 100 µM | – | – | – | – | – | – | – | – | – | – | – |
| COC(=O)OCC1OC(N2C(=O)NC(=O)C(Br)C2N=[N+]=[N-])CC1OC(=O)OC (stereo unspecified) | – | > 100 µM | > 100 µM | > 100 µM | > 100 µM | > 100 µM | > 100 µM | – | – | – | – | – | – | – | – | – | – | – |
| COc1cc2ccc3c4cc(OC)c(OC(C)C)cc4cnc3c2cc1OC | > 100 µM | > 100 µM | > 100 µM | > 100 µM | > 100 µM | > 100 µM | > 100 µM | – | – | – | – | – | – | – | – | – | – | – |
| CN[C@@H](C)[C@H](NC)c1ccccc1 | – | – | > 100 µM | > 100 µM | > 100 µM | > 100 µM | > 100 µM | – | – | – | – | – | – | – | – | – | – | – |
| COC(=O)/C(C)=C/[N+](=O)[O-] | 38.7 µM | 57.9 µM | 30.3 µM | 32.9 µM | – | 32.1 µM | 34.4 µM | – | – | – | – | – | – | – | – | – | – | – |
| Nc1nc(CCl)nc(Nc2ccccc2)n1 | 44.1 µM | 38.8 µM | 81.7 µM | 30.1 µM | 33.2 µM | 31.7 µM | – | – | – | – | – | – | – | – | – | – | – | – |
| Cc1ccc(C2(O)CC(c3ccc([N+](=O)[O-])o3)=NN2C(=O)COc2ccc(Cl)cc2)cc1 (stereo unspecified) | 16.1 µM | 18.2 µM | 27.6 µM | 31.4 µM | 22.4 µM | 16.8 µM | 17.7 µM | – | – | – | – | – | – | – | – | – | – | – |
| C=CCNC(=O)N(CCC)CCCCC(NC(C)=O)C(=O)NCc1ccccc1 (stereo unspecified) | > 100 µM | > 100 µM | > 100 µM | > 100 µM | > 100 µM | > 100 µM | > 100 µM | – | – | – | – | – | – | – | – | – | – | – |
| CN(C)C(=S)/N=c1\ss/c(=N\C(=S)N(C)C)n1-c1ccc(Cl)c(Cl)c1 | > 100 µM | > 100 µM | > 100 µM | > 100 µM | > 100 µM | > 100 µM | > 100 µM | – | – | – | – | – | – | – | – | – | – | – |
| COC(=O)/C(C#N)=C1\CCC(O)N1 (stereo unspecified) | > 100 µM | > 100 µM | > 100 µM | > 100 µM | > 100 µM | > 100 µM | – | – | – | – | – | – | – | – | – | – | – | – |
| CCCCC1(CN2CCOCC2)S/C(=N/c2nc(CC(=O)OCC)cs2)NC1=O (stereo unspecified) | 89.2 µM | > 100 µM | > 100 µM | > 100 µM | > 100 µM | > 100 µM | > 100 µM | 29.7 µM | 44.7 µM | 35.3 µM | 40 µM | 27 µM | > 100 µM | 34.4 µM | > 100 µM | 27.7 µM | 38.4 µM | 35.9 µM |
| C=C1C[C@]23CCC4C(C)(C)C(=O)CC[C@]4(C)C2C[C@H]1C(O)C3=O (stereo partly specified) | > 75 µM | > 75 µM | > 75 µM | > 75 µM | > 75 µM | – | > 75 µM | – | – | – | – | – | – | – | – | – | – | – |
| COc1cc2cccc(N=Cc3cccc(OC)c3OC(C)C)c2cc1OC | 48.6 µM | 80.3 µM | 41.2 µM | 57.2 µM | 66.9 µM | > 100 µM | – | – | – | – | – | – | – | – | – | – | – | – |
| CC1(C)O/C(=C\c2ccccc2)C(=O)/C(=C/c2ccccc2)O1 | 56.7 µM | > 100 µM | > 100 µM | > 100 µM | > 100 µM | – | – | – | – | – | – | – | – | – | – | – | – | – |
| O=C(Nc1cc(Cl)ccc1Cl)C(=O)C(c1cnc2ccccc2n1)[N+](=O)[O-] (stereo unspecified) | – | > 100 µM | > 100 µM | > 100 µM | > 100 µM | > 100 µM | > 100 µM | – | – | – | – | – | – | – | – | – | – | – |
| CN1NC(=Nc2ccccc2)Sc2c1cnn(-c1ccccc1)c2=O | > 100 µM | > 100 µM | > 100 µM | > 100 µM | – | > 100 µM | > 100 µM | – | – | – | – | – | – | – | – | – | – | – |
